This note sets out measurements from ChEMBL document CHEMBL1909046, “DrugMatrix in vitro pharmacology data”.

A short description of assay [1]: DRUGMATRIX: Glutamate, NMDA, Phencyclidine radioligand binding (ligand: [3H] TCP). The format is cell membranes, Rattus norvegicus, Wistar, Cerebral cortex, Membrane. Conditions: Not Active = under 50% inhibition at 10 µM.
Assay [2] deals with Beta-3 adrenergic receptor (Homo sapiens, UniProt P13945). Briefly: DRUGMATRIX: Adrenergic beta3 radioligand binding (ligand: [125I] Cyanopindolol). The format is cell membranes, HEK293, Membrane. Conditions: Not Active = under 50% inhibition at 10 µM.
Assay [3] has as its target T1, Muscarinic acetylcholine receptor M5 (Homo sapiens, UniProt P08912). Note: in other assays of this panel Not Active means under 50% inhibition at 10 µM.
T1 sequence (P08912 whole entry): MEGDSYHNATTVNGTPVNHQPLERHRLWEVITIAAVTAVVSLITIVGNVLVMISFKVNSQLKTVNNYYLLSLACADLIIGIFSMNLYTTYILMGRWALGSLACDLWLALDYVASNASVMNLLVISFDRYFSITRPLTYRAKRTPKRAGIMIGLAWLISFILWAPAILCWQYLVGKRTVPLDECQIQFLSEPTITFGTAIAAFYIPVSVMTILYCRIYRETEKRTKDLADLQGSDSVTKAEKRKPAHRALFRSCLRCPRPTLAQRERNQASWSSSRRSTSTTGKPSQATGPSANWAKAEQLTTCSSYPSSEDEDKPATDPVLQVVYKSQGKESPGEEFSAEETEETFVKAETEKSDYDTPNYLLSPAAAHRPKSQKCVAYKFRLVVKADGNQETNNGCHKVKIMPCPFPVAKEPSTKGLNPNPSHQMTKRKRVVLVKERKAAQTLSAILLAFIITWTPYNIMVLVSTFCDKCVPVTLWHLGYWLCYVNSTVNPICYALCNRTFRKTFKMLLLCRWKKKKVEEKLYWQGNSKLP
The format is cell membranes, CHO-K1, Membrane. Conditions: cho-k1.

For assay [4], the target named is T2, Alpha-2A adrenergic receptor (Homo sapiens, UniProt P08913). Note: in other assays of this panel Not Active means under 50% inhibition at 10 µM.
T2 sequence (P08913 whole entry): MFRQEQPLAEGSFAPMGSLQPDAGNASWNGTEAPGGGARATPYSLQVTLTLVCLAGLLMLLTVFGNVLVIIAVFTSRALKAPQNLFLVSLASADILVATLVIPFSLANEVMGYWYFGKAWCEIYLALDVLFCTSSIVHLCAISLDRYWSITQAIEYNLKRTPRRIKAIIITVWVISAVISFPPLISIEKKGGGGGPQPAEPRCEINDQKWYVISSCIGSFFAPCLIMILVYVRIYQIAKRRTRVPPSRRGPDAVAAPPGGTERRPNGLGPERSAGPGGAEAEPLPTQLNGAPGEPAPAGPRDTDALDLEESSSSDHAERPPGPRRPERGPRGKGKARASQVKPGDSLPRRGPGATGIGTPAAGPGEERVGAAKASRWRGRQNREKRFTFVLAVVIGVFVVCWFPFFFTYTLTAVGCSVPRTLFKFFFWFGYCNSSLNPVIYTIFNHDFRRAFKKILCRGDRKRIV
It counts as cell membranes, Sf9, Membrane.

The target of assay [5] is T3, Nitric oxide synthase, inducible (Mus musculus, UniProt P29477).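 Note: inhibition of iNOS enzyme activity measured with L-arginine as substrate; in other assays of this panel Not Active means under 50% inhibition at 10 µM.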
T3 sequence (P29477 whole entry): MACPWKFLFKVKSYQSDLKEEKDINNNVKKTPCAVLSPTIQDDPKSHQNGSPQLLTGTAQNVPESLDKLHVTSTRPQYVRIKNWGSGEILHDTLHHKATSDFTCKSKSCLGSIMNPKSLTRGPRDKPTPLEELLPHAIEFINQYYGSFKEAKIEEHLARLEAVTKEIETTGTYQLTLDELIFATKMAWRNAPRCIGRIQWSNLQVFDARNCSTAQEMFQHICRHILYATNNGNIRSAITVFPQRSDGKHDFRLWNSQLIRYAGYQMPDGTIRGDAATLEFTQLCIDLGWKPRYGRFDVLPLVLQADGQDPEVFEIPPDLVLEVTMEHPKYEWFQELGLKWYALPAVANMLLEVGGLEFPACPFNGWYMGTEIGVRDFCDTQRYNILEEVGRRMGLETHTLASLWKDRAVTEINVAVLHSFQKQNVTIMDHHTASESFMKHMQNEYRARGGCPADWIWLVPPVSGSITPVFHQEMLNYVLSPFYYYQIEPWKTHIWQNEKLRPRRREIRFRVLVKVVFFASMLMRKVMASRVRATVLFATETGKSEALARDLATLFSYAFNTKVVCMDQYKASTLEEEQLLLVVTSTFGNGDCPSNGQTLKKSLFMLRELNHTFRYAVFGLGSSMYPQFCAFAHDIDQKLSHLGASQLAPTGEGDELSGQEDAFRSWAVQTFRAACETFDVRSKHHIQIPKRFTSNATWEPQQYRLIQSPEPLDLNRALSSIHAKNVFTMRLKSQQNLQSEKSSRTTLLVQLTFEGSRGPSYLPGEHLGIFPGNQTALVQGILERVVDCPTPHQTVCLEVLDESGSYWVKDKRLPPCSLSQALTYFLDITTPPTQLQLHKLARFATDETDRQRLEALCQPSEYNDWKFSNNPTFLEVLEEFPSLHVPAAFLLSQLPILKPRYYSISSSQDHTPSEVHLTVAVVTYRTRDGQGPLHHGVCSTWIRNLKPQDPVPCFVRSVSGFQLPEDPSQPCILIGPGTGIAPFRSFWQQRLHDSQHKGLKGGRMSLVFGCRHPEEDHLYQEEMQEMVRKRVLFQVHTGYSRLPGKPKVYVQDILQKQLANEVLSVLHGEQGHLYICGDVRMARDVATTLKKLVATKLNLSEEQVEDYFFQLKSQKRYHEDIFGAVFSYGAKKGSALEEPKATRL
More on the design: species or system Escherichia coli.

Sequence of Beta-3 adrenergic receptor (P13945 whole entry): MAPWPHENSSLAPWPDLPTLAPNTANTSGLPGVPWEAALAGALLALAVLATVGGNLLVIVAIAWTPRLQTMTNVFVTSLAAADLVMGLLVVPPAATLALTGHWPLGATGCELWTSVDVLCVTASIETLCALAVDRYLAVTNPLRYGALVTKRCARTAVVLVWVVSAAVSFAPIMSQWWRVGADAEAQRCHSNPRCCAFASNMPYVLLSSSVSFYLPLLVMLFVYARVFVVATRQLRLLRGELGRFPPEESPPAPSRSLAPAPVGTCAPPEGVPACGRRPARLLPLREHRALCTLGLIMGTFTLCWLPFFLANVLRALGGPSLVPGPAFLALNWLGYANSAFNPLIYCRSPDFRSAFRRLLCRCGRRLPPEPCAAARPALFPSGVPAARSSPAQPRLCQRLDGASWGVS

`C[S+](C)[O-]` [DIMETHYL SULFOXIDE]: the IC50 result in assay [1], in assay [2] (hek293), in assay [3], in assay [4] (sf9) and in assay [5] was “Not Active” in each case. Besides, the inhibition constant (Ki) entry in assay [1] is “Not Active”.
Turning to `CC1=NN(c2ccccc2)C(=O)C1` [EDARAVONE], the IC50 entry in assay [1], in assay [2] (hek293), in assay [3], in assay [4] (sf9) and in assay [5] was “Not Active” throughout. Further, the Ki result in assay [1] is on record as “Not Active”.
As to `CC(C)C[C@H]1C(=O)N2CCC[C@H]2[C@]2(O)O[C@](NC(=O)[C@@H]3C=C4c5cccc6[nH]cc(c56)C[C@H]4N(C)C3)(C(C)C)C(=O)N12` [ERGOCRYPTINE], the IC50 entry in assay [1] is “Not Active”; in assay [2] (read-out: IC50), 2500 nM; in assay [3], “Not Active”; in assay [4] (read-out: IC50), 7.95 nM; in assay [5], “Not Active”. Also, the Ki result in assay [1] was “Not Active”; in assay [2] (read-out: Ki), 1870 nM; in assay [4] (read-out: Ki), 2.98 nM.
Consider `C[C@]12CC[C@@H]3c4ccc(O)cc4CC[C@H]3[C@@H]1C[C@@H](O)[C@@H]2O` [ESTRIOL], for which the IC50 entry in assay [1], in assay [2] (hek293), in assay [3], in assay [4] (sf9) and in assay [5] was “Not Active” each time. Besides, the Ki result in assay [1] was “Not Active”.
Regarding `C#C[C@]1(O)CC[C@H]2[C@@H]3CCC4=CC(=O)CC[C@]4(C)[C@H]3CC[C@@]21C` [ETHISTERONE], the IC50 result in assay [1], in assay [2] (hek293), in assay [3], in assay [4] (sf9) and in assay [5] was “Not Active” throughout. Also, the Ki result in assay [1] is on record as “Not Active”.
In the case of `CC(O)(P(=O)(O)O)P(=O)(O)O` [ETIDRONIC ACID], the IC50 result in assay [1], in assay [2] (hek293), in assay [3], in assay [4] (sf9) and in assay [5] was “Not Active” throughout. In addition, the Ki entry in assay [1] is recorded as “Not Active”.
As for `CC(C)(C(=O)O)c1ccc(C(O)CCCN2CCC(C(O)(c3ccccc3)c3ccccc3)CC2)cc1` (stereo unspecified) [FEXOFENADINE], the IC50 entry in assay [1], in assay [2] (hek293), in assay [3], in assay [4] (sf9) and in assay [5] was “Not Active” each time. In assay [1], the Ki result is listed as “Not Active”.
Consider `CN1CCN(c2c(F)cc3c(=O)c(C(=O)O)cn(CCF)c3c2F)CC1` [FLEROXACIN], for which the IC50 entry in assay [1], in assay [2] (hek293), in assay [3], in assay [4] (sf9) and in assay [5] was “Not Active” throughout. Also, the Ki result in assay [1] is “Not Active”.
Consider `O=c1[nH]c(=O)n([C@H]2C[C@H](O)[C@@H](CO)O2)cc1F` [FLOXURIDINE], for which the IC50 entry in assay [1], in assay [2] (hek293), in assay [3], in assay [4] (sf9) and in assay [5] was “Not Active” throughout. In assay [1], the inhibitory constant (Ki) entry is listed as “Not Active”.
As to `COC(=O)Nc1nc2cc(C(=O)c3ccc(F)cc3)ccc2[nH]1` [FLUBENDAZOLE], the IC50 result in assay [1], in assay [2] (hek293), in assay [3], in assay [4] (sf9) and in assay [5] was “Not Active” in each case. For the same molecule, in assay [1], the inhibition constant Ki entry was “Not Active”.
As to `CC(=O)OCC(=O)[C@@]1(O)CC[C@H]2[C@@H]3CCC4=CC(=O)CC[C@]4(C)[C@@]3(F)[C@@H](O)C[C@@]21C` [FLUDROCORTISONE ACETATE], the IC50 entry in assay [1], in assay [2] (hek293), in assay [3], in assay [4] (sf9) and in assay [5] was “Not Active” throughout. The Ki result in assay [1] is recorded as “Not Active”.
Take `CCOC(=O)c1ncn2c1CN(C)C(=O)c1cc(F)ccc1-2` [FLUMAZENIL]: the IC50 result in assay [1], in assay [2] (hek293), in assay [3], in assay [4] (sf9) and in assay [5] was “Not Active” in each case. Also, the Ki entry in assay [1] was “Not Active”.
Turning to `CC(=O)OCC(=O)[C@@]12OC(C)(C)O[C@@H]1C[C@H]1[C@@H]3C[C@H](F)C4=CC(=O)C=C[C@]4(C)[C@@]3(F)[C@@H](O)C[C@@]12C` [FLUOCINONIDE], the IC50 result in assay [1], in assay [2] (hek293), in assay [3], in assay [4] (sf9) and in assay [5] was “Not Active” each time. The inhibitory constant (Ki) result in assay [1] is “Not Active”.
For the molecule `O=C(O)P(=O)(O)O` [FOSCARNET], the IC50 entry in assay [1], in assay [2] (hek293), in assay [3], in assay [4] (sf9) and in assay [5] was “Not Active” throughout. Besides, the Ki result in assay [1] was “Not Active”.
For the molecule `Cc1ccc(C)c(OCCCC(C)(C)C(=O)O)c1` [GEMFIBROZIL], the 50% inhibitory concentration (IC50) entry in assay [1], in assay [2] (hek293), in assay [3], in assay [4] (sf9) and in assay [5] was “Not Active” each time. Further, in assay [1], the Ki result is recorded as “Not Active”.
With `O=c1c(-c2ccc(O)cc2)coc2cc(O)cc(O)c12` [GENISTEIN], the IC50 entry in assay [1], in assay [2] (hek293), in assay [3], in assay [4] (sf9) and in assay [5] was “Not Active” each time. Moreover, in assay [1], the Ki entry is listed as “Not Active”.
Take `CCC1=C(C)CN(C(=O)NCCc2ccc(S(=O)(=O)NC(=O)N[C@H]3CC[C@H](C)CC3)cc2)C1=O` [GLIMEPIRIDE]: the IC50 result in assay [1], in assay [2] (hek293), in assay [3], in assay [4] (sf9) and in assay [5] was “Not Active” each time. Besides, in assay [1], the Ki result is “Not Active”.
Consider `Nc1cc(-c2ccncc2)c[nH]c1=O` [INAMRINONE], for which the IC50 entry in assay [1], in assay [2] (hek293), in assay [3], in assay [4] (sf9) and in assay [5] was “Not Active” in each case. The Ki entry in assay [1] was “Not Active”.
For `CCCCC1=NC2(CCCC2)C(=O)N1Cc1ccc(-c2ccccc2-c2nnn[nH]2)cc1` [IRBESARTAN], the IC50 result in assay [1], in assay [2] (hek293), in assay [3], in assay [4] (sf9) and in assay [5] was “Not Active” in each case. Besides, in assay [1], the Ki entry is “Not Active”.

The IC50 is the midpoint of a concentration-inhibition curve. In general, Ki refers to the equilibrium dissociation constant of an inhibitor or competing ligand from its target.
